Measurements: patent US20250376473A1, “PRMTS INHIBITOR AND USE THEREOF” (Cytosinlab Therapeutics Co., Ltd., priority 2022, published 2025)
Where two headings read alike, the source gives them in different places.

Columns and labels:
[1] = tested on: HCT116-MTAP-KO cells (HCT116 MTAP null); assay: Proliferation inhibition of HCT116 MTAP-KO cells in vitro (CellTiter Glo); assay type: cell-based; settings: 6 days, 9 concentrations starting from 3 μM, read-out: Cell proliferation inhibition rate HCT116 MTAP null IC50 (nm)
Description: (§1) Biological Test Example 2 Proliferation Inhibition of HCT116 and HCT116 MTAP-KO Cells in Vitro
(§2) HCT116 cell line was purchased from the Chinese Academy of Sciences Cell Bank, and the MTAP gene was knocked out by CRISPR/Cas9 technology to obtain HCT116-MTAP-KO cell line.
(§3) McCoy's 5A medium (Gibco, catalog No. 16600082), fetal bovine serum (Gibco, catalog No. 10099141C), penicillin-streptomycin double antibody (Gibco, catalog No. 15140122), pancreatic enzyme (Gibco, catalog No. 25200056), CellTiter Glo assay kit (Promega, catalog No. G7572), 384-well transparent flat-bottomed black walled cell culture plate (Corning, catalog No. 3764), ultra micro sampler (Tecan, catalog No.D300e), Multimode reader (Biotek, catalog No. SynergyHTX)
(§4) 1. Cell culture: HCT116 and HCT116-MTAP-KO cells were cultured in McCoy'5A medium+10% fetal bovine serum+1% penicillin-streptomycin double antibody; to ensure that they were always in the logarithmic growth phase and the cell viability greater than 95%.
(§5) 2. Compound concentration gradient preparation: The compound to be tested was added to a 384-well plate using an ultra micro sampler, starting from 30 μM (HCT116 cells) or 3 μM (HCT116-MTAP-KO cells), and diluted with DMSO at 3 times for a total of 9 concentrations and set up three duplicate wells.
(§6) 3. Treatment of cells with compounds: Trypsin-digested HCT116 or HCT116-MTAP-KO cell suspension was added to the 384-well plates spotted with the compounds to be tested at 40 μL per well, i.e., 100 cells per well, and the final concentration of DMSO was 0.4%. The cell culture plate was incubated at 37° C. in a 5% CO2 incubator for 6 days.
(§7) 4. Detection: 20 μL of CellTiter Glo reagent was added to each well of the cell culture plate and incubated at room temperature for 30 minutes. A multimode reader was used to detect the luminescence signal at […].
(§8) The data was fitted with GraphPad Prism 8.0 software using a four parameter inhibitor-reaction model to obtain the IC50 value (half inhibitory concentration) of the test compounds.

[2] = tested on: HCT116 MTAP WT cells; assay: Proliferation inhibition of HCT116 cells in vitro (CellTiter Glo); assay type: cell-based; settings: 6 days, 9 concentrations starting from 30 μM, read-out: Cell proliferation inhibition rate HCT116 MTAP WT IC50 (nm)
Description: as §1, §2, §3, §4, §5, §6, §7, §8

Compound | IC50 ([1]; HCT116-MTAP null, 144 h) [nM] | IC50 ([2]; Homo sapiens, HCT-116, 144 h) [nM] | IC50 [1] [nM] | IC50 [2] [nM]
Cc1ncc2c(N)nc3ccc(C(=O)N(Cc4ccc(C(F)(F)F)cn4)C(C)c4ncccn4)cc3n12 (centres unmarked) [Example 2] | 100 to 1000 | 1000 to 10000 | – | –
Cc1nc(C)n2c1c(N)nc1ccc(C(=O)N(Cc3ccc(C(F)(F)F)cn3)C(C)c3ncccn3)cc12 (centres unmarked) [Example 3] | < 100 | 1000 to 10000 | – | –
CCN(Cc1ccc(C(F)(F)F)cn1)C(=O)c1cc2c(cn1)nc(N)c1cnc(C)n12 [Example 9] | < 100 | 1000 to 10000 | – | –
Cc1ccc2c(N)nc3ccc(C(=O)N(Cc4ccc(C(F)(F)F)cn4)C(C)c4ncccn4)cc3n12 (centres unmarked) [Example 12] | 100 to 1000 | 1000 to 10000 | – | –
Cc1nc(C)n2c1c(N)nc1ccc(C(=O)N(Cc3ccc(C(F)(F)F)cn3)C(C)c3ncccn3)cc12 (centres unmarked) [Example 14] | – | – | < 100 | 1000 to 10000
CCN(Cc1ccc(C(F)(F)F)cn1)C(=O)c1ccc2nc(N)c3c(C)nc(C)n3c2c1 [Example 15, 4-Amino-N-ethyl-1,3-dimethyl-N-((5-trifluoromethyl)pyridin-2-ylmethyl) imidazolo[1,5-a]quinoxalin-8-carboxamide] | 100 to 1000 | 1000 to 10000 | – | –
Cc1ncc2c(N)nc3cnc(C(=O)N(Cc4ccc(C(F)(F)F)cn4)C(C)c4ncccn4)cc3n12 (centres unmarked) [Example 16] | 100 to 1000 | 1000 to 10000 | – | –
CCN(Cc1ccc(C(F)(F)F)cn1)C(=O)c1cc2c(cc1F)nc(N)c1cnc(C)n12 [Example 18] | < 100 | 1000 to 10000 | – | –
COCCN(Cc1cn2ccccc2n1)C(=O)c1cc2c(cc1F)nc(N)c1cnc(C)n12 [Example 27] | < 100 | 100 to 1000 | – | –
Cc1cn2c(n1)c(N)nc1ccc(C(=O)N3[C@H](C)COC[C@@H]3c3cn4ccccc4n3)cc12 [Example 29] | 100 to 1000 | 1000 to 10000 | – | –
Cc1cn2c(n1)c(N)nc1cc(F)c(C(=O)N3[C@H](C)COC[C@@H]3c3cn4cc(C(F)(F)F)ccc4n3)cc12 [Example 31] | < 100 | 100 to 1000 | – | –
Cc1ncc2c(N)nc3cc(F)c(C(=O)N4C(C)COC[C@@H]4c4ncc(C(F)(F)F)cc4F)cc3n12 (some centres unmarked) [Example 34] | < 100 | 1000 to 10000 | – | –
Cc1ncc2c(N)nc3cc(F)c(C(=O)N4[C@H](C)COC[C@@H]4c4cn5ccccc5n4)cc3n12 [Example 38] | 100 to 1000 | 1000 to 10000 | – | –
Cc1ncc2c(N)nc3cc(F)c(C(=O)N(C)C4COc5cc(Br)ccc54)cc3n12 (centres unmarked) [Example 40] | 100 to 1000 | 1000 to 10000 | – | –
Cc1ncc2c(N)nc3cc(F)c(C(=O)N(C)C4COc5cc(-c6cnn(C(F)(F)F)c6)ccc54)cc3n12 (centres unmarked) [Example 46] | 1000 to 10000 | 100 to 1000 | – | –
Cc1ncc2c(N)nc3cc(F)c(C(=O)N(Cc4cn5cc(C#N)ccc5n4)c4cnn(C)c4)cc3n12 [Example 63] | 1000 to 10000 | 1000 to 10000 | – | –
Cc1ncc2c(N)nc3cc(F)c(C(=O)N(Cc4cn5ccccc5n4)C4CCN(C)C4)cc3n12 (centres unmarked) [Example 65] | 1000 to 10000 | 1000 to 10000 | – | –
Cc1ncc2c(N)nc3cc(F)c(C(=O)N(Cc4cn5ccc(C(F)(F)F)cc5n4)c4cnn(C)c4)cc3n12 [Example 70] | 100 to 1000 | 1000 to 10000 | – | –
CCN(Cc1nc(-c2ccc(C(F)(F)F)nc2)cs1)C(=O)c1cc2c(cc1F)nc(N)c1cnc(C)n12 [Example 73] | 100 to 1000 | 1000 to 10000 | – | –
CCN(C(=O)c1cc2c(cc1F)nc(N)c1cnc(C)n12)C1COc2cc(-c3cnn(C(F)(F)F)c3)ccc21 (centres unmarked) [Example 75] | 100 to 1000 | 1000 to 10000 | – | –
CCN(Cc1nc(-c2cnn(C(F)(F)F)c2)cs1)C(=O)c1cc2c(cc1F)nc(N)c1cnc(C)n12 [Example 80] | 100 to 1000 | 1000 to 10000 | – | –
CCN(Cc1ccc(C(F)(F)F)nn1)C(=O)c1cc2c(cc1F)nc(N)c1cnc(C)n12 [Example 81] | 100 to 1000 | 1000 to 10000 | – | –

Compound | IC50 ([1]; HCT116-MTAP null, 144 h) [nM] | IC50 ([2]; Homo sapiens, HCT-116, 144 h) [nM] | IC50 [1] [nM] | IC50 [2] [nM]
Cc1ncc2c(N)nc3cc(F)c(C(=O)N(Cc4ccc(C(F)(F)F)cn4)c4cnn(C)n4)cc3n12 [Example 83] | < 100 | 1000 to 10000 | – | –
CCN(Cc1ccc(OC2CC2)cn1)C(=O)c1cc2c(cc1F)nc(N)c1cnc(C)n12 [Example 85] | < 100 | 1000 to 10000 | – | –
Cc1ncc2c(N)nc3cc(F)c(C(=O)N4C(C)COCC4c4ccc(OC5CC5)cc4)cc3n12 (centres unmarked) [Example 87] | < 100 | 1000 to 10000 | – | –
Cc1ncc2c(N)nc3cc(F)c(C(=O)N(Cc4ccc(C(F)(F)F)cn4)c4cn[nH]c4)cc3n12 [Example 88] | 100 to 1000 | 1000 to 10000 | – | –
Cc1ncc2c(N)nc3cc(F)c(C(=O)N4C(C)COCC4c4cnc(C(F)(F)F)s4)cc3n12 (centres unmarked) [Example 89] | < 100 | 1000 to 10000 | – | –
Cc1ncc2c(N)nc3cc(F)c(C(=O)N(Cc4ccc(C(F)(F)F)cn4)c4cnn(C)c4)cc3n12 [Example 90] | < 100 | 1000 to 10000 | – | –
CCOc1ccc(CN(CC)C(=O)c2cc3c(cc2F)nc(N)c2c(C)ncn23)nn1 [Example 95] | – | – | 100 to 1000 | 1000 to 10000
CCN(Cc1ccc(OC2COC2)cn1)C(=O)c1cc2c(cc1F)nc(N)c1cnc(C)n12 [Example 99] | 100 to 1000 | 1000 to 10000 | – | –
Cc1ncn2c1c(N)nc1cc(F)c(C(=O)N3C(C)COCC3c3ccc(C(F)F)cn3)cc12 (centres unmarked) [Example 101] | – | – | < 100 | 100 to 1000
CCOc1ccc(CN(CC)C(=O)c2cc3c(cc2F)nc(N)c2cnc(C)n23)nn1 [Example 102] | < 100 | 1000 to 10000 | – | –
CCOCCc1ccc(C2COCC(C)N2C(=O)c2cc3c(cc2F)nc(N)c2c(C)ncn23)nc1 (centres unmarked) [Example 103] | < 100 | 1000 to 10000 | – | –
COCCOc1ccc(C2COCC(C)N2C(=O)c2cc3c(cc2F)nc(N)c2c(C)ncn23)nc1 (centres unmarked) [Example 105] | < 100 | 1000 to 10000 | – | –
Cc1ncn2c1c(N)nc1cc(F)c(C(=O)N3C(c4ccc(C#N)cn4)COC[C@H]3C)cc12 (some centres unmarked) [Example 108] | < 100 | 1000 to 10000 | – | –
Cc1nn(C)cc1N(Cc1ccc(C(F)(F)F)cn1)C(=O)c1cc2c(cc1F)nc(N)c1cnc(C)n12 [Example 109] | < 100 | 1000 to 10000 | – | –
Cc1ncc2c(N)nc3cc(F)c(C(=O)N4C(c5ccc(C(F)F)cn5)COC[C@H]4C)cc3n12 (some centres unmarked) [Example 110] | < 100 | 100 to 1000 | – | –
Cc1ncn2c1c(N)nc1cc(F)c(C(=O)N3C(C)COCC3c3ccc(C4CCOCC4)cn3)cc12 (centres unmarked) [Example 112] | < 100 | 1000 to 10000 | – | –
Cc1ncc2c(N)nc3cc(F)c(C(=O)N(Cc4ccc(C(F)(F)F)cn4)c4ncn(C)n4)cc3n12 [Example 115] | 100 to 1000 | 1000 to 10000 | – | –
Cc1ncc2c(N)nc3cc(F)c(C(=O)N(Cc4ccc(OCC(F)(F)F)cn4)c4cnn(C)c4)cc3n12 [Example 116] | 100 to 1000 | 1000 to 10000 | – | –
Cc1nn(C)cc1N(Cc1cn2cc(C(F)(F)F)ccc2n1)C(=O)c1cc2c(cc1F)nc(N)c1cnn(C)c12 [Example 204] | – | 1000 to 10000 | – | –
Cn1nccc1N(Cc1cn2cc(C(F)(F)F)ccc2n1)C(=O)c1cc2c(cc1F)nc(N)c1cnn(C)c12 [Example 218] | – | 1000 to 10000 | – | –
C[C@@H]1COC[C@H](c2cn3ccccc3n2)N1C(=O)c1ccc2nc(N)c3cnn(C)c3c2c1 [Example 416] | 100 to 1000 | – | – | –
